Results on seven compounds are retold here after US20250059199A1, “SOLID FORMS OF A TYK2 INHIBITOR, METHOD OF PREPARATION, AND USE THEREOF” (BeiGene Switzerland GmbH, priority 2021, published 2025).

One may read the solubility as the concentration that dissolves in the medium under given conditions.

Structures can show the parent of a compound that is named as a salt.

Data set [1] is described as follows: Physicochemical stability of Compound 1 Form A (equilibration, evaporation, anti-solvent, DSC heating-cooling cycle experiments). Conditions: equilibration at 25° C. (18 solvent systems) and 50° C. (19), slow and fast evaporation.
Data set [2] is described as follows: Hygroscopicity by dynamic vapor sorption (DVS) test. The note with it: for Form and crystallinity after the DVS test: after DVS at 25° C.; for hygroscopicity: DVS at 25° C.; for water absorbed: from 40% RH to 95% RH at 25° C. It counts as physicochemical. The method, then: It absorbed about 1.1% water from 40% RH to 95% RH at 25° C. […] It absorbed about 2.3% water from 40% RH to 95% RH at 25° C. […] It absorbed about 0.4% water from 40% RH to 95% RH at 25° C. […] It absorbed about 0.29% water from 40% RH to 95% RH at 25° C. […] It absorbed about 0.14% water from 40% RH to 95% RH at 25° C. After the DVS test.

Data set [3] in a line: Solubility in aqueous pH buffers and bio-relevant solutions. The format is physicochemical. The note with it: for solubility: in some solvent systems (summary statement). How it is done: Solubility of the Compound 1 mesylate Form C, phosphate Form A, maleate Form A, and fumarate Form B was measured in 6 aqueous pH buffers and bio-relevant solutions including pH 1.2 HCl solution (0.1 N), pH 4.5 acetate buffer (50 mM), water, pH 2.0 SGF, pH 6.5 FaSSIF-v1, and pH 5.0 FeSSIF-v1 at 37° C. for 1 h and 2 h. Residual solids after the solubility test were analyzed by XRPD.

Data set [4] in a line: Feasibility of Formulation process (compression, dry grinding, granulation simulation). It counts as physicochemical. The note with it: for tolerance to compression, dry grinding, granulation simulation: compression at 2, 5, 10 and 20 MPa, Form change and crystallinity. How it is done: Feasibility of Formulation process for Compound 1 mesylate Form C, phosphate Form A, maleate Form A, fumarate Form B hydrochloride Form C, and hydrochloride Form D were evaluated by compression (at 2 MPa, 5 MPa, 10 MPa, and 20 MPa), dry grinding, and granulation simulation experiments.

Another data set in a line: PK exposure. Conditions: summary statement, method not given. The format is in vivo.
A further data set can be described thus: Bulk stability. The note with it: 1 week. The format is physicochemical. The method, then:
Bulk stability of Compound 1 mesylate Form C, phosphate Form A, maleate Form A, fumarate Form B was investigated under 25° C./60% RH in an open container and under 40° C./75% RH in an open container over 1 week. Bulk stability of Compound 1 hydrochloride Form C and Form D, were evaluated under 25° C./60% RH in an open container, under 40° C./75% RH in an open container, and at 60° C. in a tight container over 1 week.

As to `CC(=O)Nc1cc(Nc2cc(C3CCOCC3)cc(S(C)(=O)=O)n2)c(-c2ccc3c(n2)OCC(C)(C)O3)cn1` [Compound 1 Form A, N-(5-(2,2-dimethyl-2,3-dihydro-[1,4]dioxino[2,3-b]pyridin-6-yl)-4-((6-(methylsulfonyl)-4-(tetrahydro-2H-pyran-4-yl)pyridin-2-yl)amino)pyridin-2-yl)acetamide], in data set [1], the “physicochemical stability (crystalline Form after the experiments)” value was “still kept the same Form”.
As for `CC(=O)Nc1cc(Nc2cc(C3CCOCC3)cc(S(C)(=O)=O)n2)c(-c2ccc3c(n2)OCC(C)(C)O3)cn1` [Compound 1 fumarate Form B, N-(5-(2,2-dimethyl-2,3-dihydro-[1,4]dioxino[2,3-b]pyridin-6-yl)-4-((6-(methylsulfonyl)-4-(tetrahydro-2H-pyran-4-yl)pyridin-2-yl)amino)pyridin-2-yl)acetamide], in data set [2] (RH<70%, 25° C.), the “DVS behaviour of the potential hydrate” value is “underwent dehydration when RH<70% and returns back to the anhydrate”. The “Form and crystallinity after the DVS test” value (“Form and crystallinity” below) in data set [2] is reported as “still Compound 1 fumarate Form B”. The DVS behaviour result in data set [2] (from 0% RH to 40% RH, 25° C.) is “stable”; in data set [2] (relative humidity above 40%, 25° C.) it was “started to absorb water when relative humidity was above 40% and converted to a potential hydrate”. Besides, the “residual solids after the solubility test (XRPD)” value in data set [3] (SGF) is given as “remained unchanged”. The solubility entry in data set [3] is given as “relatively high solubility”. In data set [4] (dry grinding and compression), the “Form after dry grinding and compression” value is listed as “showed Form change”. Further, in “PK exposure”, the PK exposure entry is on record as “good PK exposure”. Also, the bulk stability entry is “physically and chemically stable” in the data set “Bulk stability” (25° C./60% RH, open container); “physically and chemically stable” in “Bulk stability” (40° C./75% RH, open container).
As to `CC(=O)Nc1cc(Nc2cc(C3CCOCC3)cc(S(C)(=O)=O)n2)c(-c2ccc3c(n2)OCC(C)(C)O3)cn1` [Compound 1 hydrochloride Form C, N-(5-(2,2-dimethyl-2,3-dihydro-[1,4]dioxino[2,3-b]pyridin-6-yl)-4-((6-(methylsulfonyl)-4-(tetrahydro-2H-pyran-4-yl)pyridin-2-yl)amino)pyridin-2-yl)acetamide], in data set [2], the hygroscopicity entry is “slightly hygroscopic”; the “Form and crystallinity” value was “No Form changed”; the water absorbed entry is “about 0.29%”. The tolerance to compression result in data set [4] (compression) was “good tolerance to compression with no Form change and no obvious crystallinity decrease”. The “tolerance to compression, dry grinding, granulation simulation” value (“tolerance to compression, dry grinding” below) in data set [4] is “good tolerance”. The “XRPD peaks after compression” value in data set [4] (compression at 5 MPa, 10 MPa, and 20 MPa) was “became slightly broad”. The bulk stability result in “Bulk stability” (25° C./60% RH, open container) is “physically and chemically stable”. Further, the bulk stability result in the data set “Bulk stability” (40° C./75% RH, open container) is “physically and chemically stable”. The bulk stability result in the data set “Bulk stability” (60° C., tight container) is “physically and chemically stable”.
In the case of `CC(=O)Nc1cc(Nc2cc(C3CCOCC3)cc(S(C)(=O)=O)n2)c(-c2ccc3c(n2)OCC(C)(C)O3)cn1` [Compound 1 hydrochloride Form D, N-(5-(2,2-dimethyl-2,3-dihydro-[1,4]dioxino[2,3-b]pyridin-6-yl)-4-((6-(methylsulfonyl)-4-(tetrahydro-2H-pyran-4-yl)pyridin-2-yl)amino)pyridin-2-yl)acetamide], the hygroscopicity result in data set [2] is on record as “non-hygroscopic”. Further, in data set [2], the “Form and crystallinity” value is reported as “No Form changed”. Besides, the water absorbed entry in data set [2] is “about 0.14%”. For the same compound, the “tolerance to compression, dry grinding” value in data set [4] is listed as “good tolerance”. Also, the “XRPD peaks after compression” value in data set [4] (compression under 5 MPa and 10 MPa) is listed as “became slightly broad”. Also, the bulk stability result in “Bulk stability” (25° C./60% RH, open container) is “physically and chemically stable”; in “Bulk stability” (40° C./75% RH, open container), “physically and chemically stable”; in the data set “Bulk stability” (60° C., tight container) it was “physically and chemically stable”.
`CC(=O)Nc1cc(Nc2cc(C3CCOCC3)cc(S(C)(=O)=O)n2)c(-c2ccc3c(n2)OCC(C)(C)O3)cn1` [Compound 1 maleate Form A, N-(5-(2,2-dimethyl-2,3-dihydro-[1,4]dioxino[2,3-b]pyridin-6-yl)-4-((6-(methylsulfonyl)-4-(tetrahydro-2H-pyran-4-yl)pyridin-2-yl)amino)pyridin-2-yl)acetamide]: in data set [2], the hygroscopicity entry is “slightly hygroscopic”; the “Form and crystallinity” value was “No Form and crystallinity changed”; the water absorbed entry is on record as “about 0.4%”. In addition, in data set [3], the solubility entry is recorded as “relatively high solubility”. The “tolerance to compression, dry grinding” value in data set [4] was “good tolerance”. The PK exposure entry in “PK exposure” is on record as “good PK exposure”. In addition, the bulk stability entry in the data set “Bulk stability” (25° C./60% RH, open container) was “physically and chemically stable”. Moreover, the bulk stability result in the data set “Bulk stability” (40° C./75% RH, open container) is “physically and chemically stable”.
`CC(=O)Nc1cc(Nc2cc(C3CCOCC3)cc(S(C)(=O)=O)n2)c(-c2ccc3c(n2)OCC(C)(C)O3)cn1` [Compound 1 mesylate Form C, N-(5-(2,2-dimethyl-2,3-dihydro-[1,4]dioxino[2,3-b]pyridin-6-yl)-4-((6-(methylsulfonyl)-4-(tetrahydro-2H-pyran-4-yl)pyridin-2-yl)amino)pyridin-2-yl)acetamide]: in data set [2], the hygroscopicity result is listed as “slightly hygroscopic”; the “Form and crystallinity” value was “No Form and crystallinity changed”; the water absorbed entry is reported as “about 1.1%”. For the same compound, the solubility entry in data set [3] is “relatively high solubility”. For the same compound, the “tolerance to compression, dry grinding” value in data set [4] is on record as “good tolerance”. For the same compound, the PK exposure entry in the data set “PK exposure” was “good PK exposure”. Moreover, the bulk stability result in “Bulk stability” (25° C./60% RH, open container) is “physically and chemically stable”. Besides, the bulk stability result in the data set “Bulk stability” (40° C./75% RH, open container) was “physically and chemically stable”.
On to `CC(=O)Nc1cc(Nc2cc(C3CCOCC3)cc(S(C)(=O)=O)n2)c(-c2ccc3c(n2)OCC(C)(C)O3)cn1` [Compound 1 phosphate Form A, N-(5-(2,2-dimethyl-2,3-dihydro-[1,4]dioxino[2,3-b]pyridin-6-yl)-4-((6-(methylsulfonyl)-4-(tetrahydro-2H-pyran-4-yl)pyridin-2-yl)amino)pyridin-2-yl)acetamide], for which, in data set [2], the hygroscopicity result is reported as “slightly hygroscopic”; the “Form and crystallinity” value is “No Form and crystallinity change”; the water absorbed result is given as “about 2.3%”. Moreover, in data set [3], the solubility entry was “relatively high solubility”. The solubility at 1 h in data set [3] (pH 2, simulated gastric fluid, thermodynamic from solid, SGF, 37° C., at 1 h) is approximately 740 µg/mL. The “tolerance to compression, dry grinding” value in data set [4] was “good tolerance”. Also, the PK exposure result in “PK exposure” is given as “good PK exposure”. In “Bulk stability” (25° C./60% RH, open container), the bulk stability entry is “physically and chemically stable”. The bulk stability entry in “Bulk stability” (40° C./75% RH, open container) was “physically and chemically stable”.
